“Also recorded” adds a separate entry of the source.
Key:
[1] = system: definitive endoderm cells; experiment: Effects of FGFs on intestinal differentiation of definitive endoderm cells (RT-PCR, Cdx2 immunohistochemistry); type: cell-based, mouse
Description: The ES cells were culture on M15 cells added with 20 ng/mL of activin and 50 ng/mL of bFGF in DMEM medium containing 10% fetal bovine sera and […] of glucose for 5 days, and were analyzed using flow cytometry for definitive endoderm. For intestinal differentiation, the ES cells were further cultured on M15 or MEF cells, in the presence of BIO and DAPT, or without BIO and DAPT but with FGFs, in media with 10% KSR at a glucose concentration of 2000 mg/mL.
256 ng/mL of FGF2 (human bFGF) (Peprotech); and
50 ng/mL of FGF4 (Peprotech), FGF5 (Sigma), FGF7 (R&D Systems), FGF8 (Cosmo Bio), FGF9 (Peprotech), FGF10 (R&D Systems) and FGF18 (Sigma), respectively.
RNA was extracted from the ES cells using TRI Reagent (Sigma) or RNeasy micro-kit (Qiagen), and then, was treated with DNase (Sigma). Three micrograms of RNA were reverse-transcribed using a MMLV reverse transcriptase (Toyobo) and oligo dT primers (Toyobo). The PCR conditions for each cycle include initial denaturation at 96° C. for one minute, and the second and subsequent cycles of denaturation at 96° C. for 30 seconds, annealing at 60° C. for 2 seconds and extension at 72° C. for 20 seconds, and the final cycle of extension at 72° C. for 7 minutes. RT-PCR products were separated by 5% non-denaturing polyacrylamide gel electrophoresis, stained with SYBR Green I (Molecular Probes), and visualized using Gel Logic 200 Imaging System (Kodak).

mouse ES cells = experiment: Test Example 2: addition of various activators, proportion of Cdx2-positive cells by flow cytometry, feeder-free; type: cell-based; settings: for Cdx2-positive cells: BIO (5 μM) and DAPT (10 μM) with or without FGF2 50 ng/mL
Description: Therefore, next, an experiment in which the FGF signaling, the BMP signaling and the Hh signaling were activated was carried out. In view of micro-array data showing that MEF cells express FGF2 and BMP4, 50 ng/mL of FGF2 (PEPROTECH) and 25 ng/mL of BMP4 (R&D Systems) were used to activate the FGF signaling and the BMP signaling. Furthermore, as to activation of the Hh signaling, 300 nM of SAG (MERCK) (smoothend agonist; smo) was used.
For the experiment of inducing the differentiation, the induction of differentiation was carried out in a feeder-free system as described below. First, mouse ES cells were plated on a gelatin-coated dish at 6,900 cells/cm^2. The ES cells were cultured for 7 days in DMEM medium (Dulbecco's Modified Eagle Medium) (Invitrogen, Glasgow, UK) containing 4,500 mg/L of glucose, supplemented with NEAA, L-Gln, PS, β-ME, 10 μg/mL of Insulin (Sigma-Aldrich), […] of Transferin (Sigma-Aldrich), 6.7 pg/mL of Selenium (Sigma-Aldrich), 0.25% AlbuMax (Invitrogen), and 10 ng/mL of recombinant human activin A (R&D Systems, Minneapolis, Minn.), and then, the culture medium was replaced with 10% KSR containing 2,000 mg/mL of glucose, BIO (5 μM) and DAPT (10 μM) and further supplemented with the activator or growth factor. After that, cell culturing was further continued, the cells were separated on the 10th day and the 15th day of cultivation as described in Example 1, and then, the proportion of Cdx2-positive cells was evaluated by use of flow cytometry. The flow cytometry (FACS) analysis was carried out using BD Cytofix/Cytoperm™ Kit (BD Biosciences) in accordance with a manual provided by the manufacturer.

human ES cells [2] = experiment: Test Example 3: addition of various activators in human ES cells, proportion of Cdx2-positive cells by flow cytometry; type: cell-based; settings: 20th day of cultivation; FGF2 50 ng/mL besides BIO (5 ηM) and DAPT (10 μM)
Description: With respect to human ES cells, it was examined whether or not addition of FGF2, BMP4 and/or SAG improves an efficiency of differentiation into Cdx2-positive cells in a feeder-free system.
First, for the experiment of inducing the differentiation, human ES cells were plated on gelatin-coated dishes at 69,000 cells/cm^2. The ES cells were cultured for seven days in RPMI 1640 medium (Invitrogen) supplemented with NEAA, L-Gln, PS, β-ME, 10 μg/mL of Insulin (Sigma-Aldrich), 100 ng/mL of recombinant human activin A (R&D Systems, Minneapolis, Minn.), and B27 supplement (Invitrogen). Then, the culture medium was replaced with 10% KSR supplemented with 2,000 mg/mL of glucose, BIO ([…]), DAPT (10 μM) and activators and growth factors at the concentrations as described in Test Example 2. After that, cell culturing was further continued, and the cells were separated on the 9th day and the 20th day of cultivation in the same manner as Example 1, and then, the proportion of Cdx2-positive cells was evaluated by use of flow cytometry. The flow cytometry (FACS) analysis was carried out using BD Cytofix/Cytoperm™ Kit (BD Biosciences) in accordance with a manual provided by the manufacturer.

human ES cells [3] = experiment: Test Example 4: effect of FGF2 concentration on human ES cells, proportion of Cdx2-positive cells by flow cytometry; type: cell-based
Description: Since there has been a previous report that a high concentration of FGF2 is important for differentiation of human ES cells into Cdx2-positive cells, it was examined whether or not the same results can be obtained. The final concentration of 250 ng/mL of FGF2 was used. In accordance with the method in Test Example 3, differentiation of human ES cells was carried out on gelatin-coated dishes until they differentiated into endoderm, and then (on the 7th day of cultivation), 0, 50, and 250 ng/mL of FGF2, respectively, were added thereto besides BIO (5 μM) and DAPT (10 μM), and the cells were further cultured until the 9th day or 20th day, and the proportion of Cdx2-positive cells was evaluated by flow cytometry. The flow cytometry (FACS) analysis was carried out using BD Cytofix/Cytoperm™ Kit (BD Biosciences) in accordance with a manual provided by the manufacturer.

[4] = system: khES-3 (human ES cell line); experiment: Intestinal differentiation of human ES cells on M15 cells; type: cell-based; design: dose or concentration left out as unconfirmed; settings: activin for 10 days
From the text: Human ES cells (KhES-3) (PMID: 16707099) was those provided by Dr. N. Nakatsuji and Dr. H. Suemori (Kyoto University, Kyoto, Japan), and were used in accordance with the hES cell guidelines of the Japanese government. The undifferentiated hES cells were maintained on a feeder layer of MEF in Knockout DMEM/F12 (Invitrogen) supplemented with 20% KSR, L-Gln, NEAA and β-ME under 3% CO2. To passage the hES cells, hES cell colonies were detached from the feeder layer by treating them with 0.25% trypsin and 0.1 mg/mL of collagenase IV in PBS containing 20% KSR and 1 mM of CaCl2 at 37° C. for 5 minutes, followed by adding a culture medium thereto and gently pipetting them several times to desegregate ES cell clumps into smaller pieces (5-20 cells).
For differentiation induction, the human ES cells were pre-treated with Y27632 (Wako) for 24 hours, and then, they were plated at 50,000 cells per well in 24-well plates that had been pre-coated with M15 cells. The ES cells were dissociated with 0.25% trypsin-EDTA (Invitrogen), and cultured in Y27632 containing an ES maintenance medium for one day. One day after plating, the cells were washed by PBS, and the medium was changed to a differentiation medium. […]

| Molecule | induction of Cdx2-expressing intestinal cells ([1]; FGFs added from Day 4 of the differentiation, on MEF cells, immunohistochemistry on day 12) | molecular markers for enterocytes (Ifabp, Isx), goblet cells (Tff3), Paneth cells (Lyz1) and enteroendocrine cells (Sct, Syp, Sst, Gast) ([1]; RT-PCR, day 15, BIO and DAPT, or FGF2 (256 ng/mL) only without BIO and DAPT) | Cdx2-positive cells (mouse ES cells; 10th day of cultivation) [%] | number of Cdx2-positive cells versus control (only BIO and DAPT) (mouse ES cells; 10th day of cultivation, FGF2 50 ng/mL or SAG 300 nM added besides BIO and DAPT) | Cdx2-positive cells (mouse ES cells; 15th day of cultivation) | efficiency of differentiation versus control (only BIO and DAPT) (mouse ES cells; 15th day of cultivation, FGF2 added besides BIO and DAPT) | proportion of Cdx2-positive cells (human ES cells [2]) | proportion of Cdx2-positive cells (human ES cells [3]; 9th day of cultivation, 250 ng/mL of FGF2 besides BIO (5 μM) and DAPT (10 μM)) | proportion of Cdx2 positive cells (human ES cells [3]; 20th day of cultivation, 0, 50 and 250 ng/mL of FGF2 besides BIO (5 μM) and DAPT (10 μM)) | differentiation of khES-3 into definitive endoderm [4] |
| --- | --- | --- | --- | --- | --- | --- | --- | --- | --- | --- |
| FGF2: basic fibroblast growth factor, FGF2 (human bFGF) (Peprotech) | induced Cdx2-expressing intestinal cells | induced at much lower levels; also recorded: small in extent | 40 | significant increase | about 60% | more efficiently differentiate | decreased | decreased | decreased depending on the concentration of FGF2 |  |
| activin: recombinant human activin-A (R&D Systems) (protein, UniProt P08476 311-426, looked up, Inhibin beta A chain) Inhibin beta A chain: GLECDGKVNICCKKQFFVSFKDIGWNDWIIAPSGYHANYCEGECPSHIAGTSGSSLSFHSTVINHYRMRGHSPFANLKSCCVPTKLRPMSMLYYDDGQNIIKKDIQNMIVEECGCS |  |  |  |  |  |  |  |  |  | differentiated into definitive endoderm |
